The values below come from patent US11840525B2, “Use of AURKB small-molecule inhibitors for treatment of non-small cell lung cancer” (Nanjing China-Australia Institute of Translational Medicine …, priority 2016, dated 2023).

In one assay the test system is HL-60. Briefly: Growth inhibition of tumor cells, HL-60. The class given is cell-based. The settings on record: Homo sapiens, read-out: IC50 against tumor cells, HL-60. The procedure: Lung cancer cells A549 were separated into a 96-well plate and respectively added with 10 mM TZ47 stock solution to final concentrations of 0 μM, 0.1 μM, 0.5 μM, 1 μM, 2 μM, 4 μM and 8 μM in respective wells. Then the 96-well plate was incubated at 37° C. for 48 h and the growth of the cells was analyzed by a CCK-8 method. […] It can be seen from Table 1 that TZ47 also plays a desirable role in inhibiting the growth of other cancer cells including colorectal cancer, leukemia, liver cancer, melanoma, breast cancer and ovarian cancer.

Assay [1] concerns H3S10 ph near the E2F2 promoter in A549 cells. The experiment in a line: ChIP assay of H3S10 ph near the E2F2 promoter. The class given is cell-based. The settings on record: TZ47-treated A549 cells. The procedure: A549 cells were treated by different concentrations of TZ47, and then total RNAs and total proteins of cells were extracted to detect the expression of gene E2F2. […] To further verify the above results, A549 cells were treated with TZ47 and extracted for chromatin, and the chromatin and an H3S10 ph-specific antibody were then used in the ChIP assay. […] It can be seen from the above tests that TZ47 can inhibit the AURKB activity and further inhibit the level of AURKB histone substrate H3S10 ph on the promoter of gene E2F2, affecting the expression of gene E2F2.
The specific steps were described as follows. • a. Detailed steps and conditions for Western blot assay and real-time quantitative PCR test have been described in the above Examples. • b. Chromatin co-immunoprecipitation (ChIP) • 1) In vivo cross-linking of DNA-protein complex
2×10^6-7 cells were collected by low-speed centrifugation, resuspended in 20 mL of RPMI 1640 medium, added with 550 μL of a 37% formalin solution in a fuming cupboard to a final concentration of 1% and incubated for 10 min. The system was mixed 2-3 times during the incubation. • 2) Termination of cross-linking
The cross-linking system was added with 1.35 mL of 2 M glycine (final concentration: 0.1 M), mixed uniformly and incubated for 10 min. […]
The OD260 value of the supernatant was determined and used to calculate the DNA concentration. […]

As to `c1ccc2c(Cc3[nH]c4ccccc4c3Cc3c[nH]c4ccccc34)c[nH]c2c1` [TZ47], the IC50 (commonly the concentration that inhibits the measured activity by half) in the assay with HL-60 worked out at 91.6 ± 2.2 nM. In assay [1], the “enrichment of histone H3S10 ph near the E2F2 promoter” value is recorded as “significantly reduced”.
